Experiments:
[1] = target: T1, mitochondrial CoQ-dependent respiratory complex II (Mus musculus, UniProt Q8K2B3+Q9CQA3+Q9CXV1+Q9CZB0); test: Biochemical selectivity assay, respiratory complex II; conditions: highest concentration tested 11 μM
T1 construct: mouse muscle homogenate preparations that contain disrupted mitochondrial membranes; from tissue; host or cells: mouse muscle homogenate
Description: Inhibitor selectivity was assessed using mouse muscle homogenate preparations that contain disrupted mitochondrial membranes, a feature that makes substrates accessible to each of the membrane-bound respiratory complexes. Spectrophotometric assays for each complex are conducted in the presence or absence of a target-specific inhibitor (FIG. 9) to correct for nonspecific substrate oxidation, as previously described (Spinazzi et al., 2012, Nature Protocols 7: 1235-1246). Thus, the activity of complex I is determined by monitoring the oxidation of NADH in the absence or presence of rotenone. Complex III activity is measured based on the rate of cytochrome C reduction observed in the presence or absence of antimycin A. The reaction catalyzed by complex II produces decylubiquinol (decylCoQH2), which rapidly reduces DCIP. The activity of […] is determined by monitoring DCIP reduction in the presence and absence of 2-thenoyltrifluoroacetone (TTFA).

[2] = system: TAC mouse model of heart failure; assay type: in vivo; conditions: 10 mg/kg i.p. daily
Description: Male C57BL/6J mice 10-14 weeks of age were purchased from The Jackson Laboratory (Bar Harbor, Me.).
Mice were anesthetized with isofluran or ketamine/xylazine. The mice were orally intubated and placed on a Harvard volume-cycled rodent ventilator to maintain respiration during surgery. The TAC procedure was performed by tying the aortic arch between the brachiocephalic trunk (innominate artery) and the left carotid artery against a 27-gauge needle spacer with a 7-0 silk suture, followed by immediate removal of the needle. For sham surgeries, thoracotomy was performed and the aorta was surgically exposed without any further intervention. Following surgical closure of the chest, the animals were allowed to recover from anesthesia, followed by post-operative care. The animals were euthanized 12 weeks post-surgery; hearts were harvested, weighed and tibia lengths were measured.
Sterile stock solutions of vehicle only [NMP:PG:kleptose in water (10:40:50)] were similarly prepared each week and stored in aliquots at 4° C. until use. […] (to minimize precipitation), and then cooled to room temperature.
Transthoracic echocardiography was used to noninvasively quantify cardiac structural and functional changes during the progression to heart failure in the TAC mouse model. Measurements were conducted with animals under 1-3% isoflurane anesthesia using a Vevo® 2100 Imaging System with a high-frequency (18-38 MHz) probe (VisualSonics MS400) (Kohut et al., 2016, J. Cardiovasc. Ultrasound 24: 229-238). Echocardiography using color Doppler ultrasound was performed at 1 week after surgery to confirm the aortic constriction. The aortic constriction was further confirmed by conducting color Doppler and pulsed wave Dopier measurements at 12 weeks after surgery. Baseline echocardiography evaluations were performed 1-2 days prior to surgery. For these studies, parasternal long and short axis images were obtained in two-dimensional B-mode and M-mode. Additional images were obtained at regular intervals (2, 4, 6, 8, 10, 12 weeks) after surgery. To evaluate cardiac structure and function, the echocardiographic data were used to determine left ventricle (LV) end-diastolic diameter, LV end-systolic diameter, LV end-diasolic volume, LV ejection fraction, LV fractional shortening, and LV mass.
Mouse hearts were collected at 12 weeks post surgery, fixed in 10% buffered formalin, and then embedded in paraffin blocks, which were used to prepare serial 4 μm thick heart sections. To detect interstitial fibrosis, heart sections were stained with Masson's trichrome which colors collagen blue and cytoplasm red. Digital images of the slides were captured at 160× magnification using a Leica DFC290 digital camera in conjunction with a Leica MZ16F microscope. […] For each heart, 2 sections taken from the mid-ventricle were analyzed. […] Images were acquired using a FV3000 Olympus Confocal Microscope and analyzed in a blinded manner by two observers. Five field views per mid-ventricle heart section were analyzed by measuring the cross-sectional area of 100 cells per field view using ImageJ. A total of 500 cells per heart section were measured.
All data are expressed as means±SEM. Statistical significance was evaluated for comparison between 3 or more means using one-way ANOVA with Tukey-Kramer post hoc test. For the echcocardiography data, obtained prior to and at two-week intervals after surgery, statistical significance was evaluated using two-way repeated ANOVA with Bonferroni post hoc test.

[3] = system: rat neonatal ventricular cardiomyocytes (NVCMs); test: Angiotensin II-induced hypertrophy assay in NVCMs; assay type: cell-based; conditions: 200 nM Ang II 24 h; 10 μM FC9402
Description: Rat neonatal ventricular cardiomyocytes (NVCMs) were isolated from the hearts of 1-2 day old Sprague-Dawley rats (Charles River) in 50-90% yield (70-95% viability) by following the protocol described by Golden et al. (Golden et al., 2012, in Cardiovascular Development. Methods in Molecular Biology (Methods and Protocols), vol 843 (Peng, X., Antonyak, M., Eds.) pp 205-214, Springer, Totowa, N.J.).
NVCMs are maintained in Dulbecco's modified Eagle's medium (DMEM:F12) containing 20% fetal bovine serum (FBS), 5% horse serum, 1× GlutaMAX, and 2 μg/mL insulin. For hypertrophy studies, cells were plated onto 4-well glass chamber slides, precoated with poly-D-lysine and laminin. The maintenance medium was aspirated after incubation for 72 h. The cells were serum-starved overnight in DMEM:F12 containing 1% FBS, 1× GlutaMAX, and 2 ug/mL insulin and then incubated for 24 h in fresh serum-starved medium containing angiotensin II, as indicated. […]

[4] = echocardiography, TAC mice, 12 weeks

T1 sequence (Q8K2B3 43-664): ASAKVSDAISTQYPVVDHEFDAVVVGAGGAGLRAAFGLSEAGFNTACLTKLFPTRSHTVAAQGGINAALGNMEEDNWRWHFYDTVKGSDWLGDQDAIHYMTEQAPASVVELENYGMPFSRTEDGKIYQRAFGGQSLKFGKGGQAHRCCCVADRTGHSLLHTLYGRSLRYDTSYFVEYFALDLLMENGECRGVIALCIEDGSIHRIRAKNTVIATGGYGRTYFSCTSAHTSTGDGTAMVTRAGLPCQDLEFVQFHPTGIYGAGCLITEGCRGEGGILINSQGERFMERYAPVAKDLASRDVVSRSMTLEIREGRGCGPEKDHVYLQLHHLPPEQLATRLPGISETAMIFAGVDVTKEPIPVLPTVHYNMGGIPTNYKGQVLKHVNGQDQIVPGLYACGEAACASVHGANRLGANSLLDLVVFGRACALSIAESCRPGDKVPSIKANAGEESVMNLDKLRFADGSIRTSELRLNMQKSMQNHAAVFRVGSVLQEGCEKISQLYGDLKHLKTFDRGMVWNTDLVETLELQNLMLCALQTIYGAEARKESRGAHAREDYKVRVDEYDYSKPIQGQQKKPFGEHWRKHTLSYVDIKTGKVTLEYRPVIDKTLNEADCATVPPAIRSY
T1 sequence (Q9CQA3 31-282): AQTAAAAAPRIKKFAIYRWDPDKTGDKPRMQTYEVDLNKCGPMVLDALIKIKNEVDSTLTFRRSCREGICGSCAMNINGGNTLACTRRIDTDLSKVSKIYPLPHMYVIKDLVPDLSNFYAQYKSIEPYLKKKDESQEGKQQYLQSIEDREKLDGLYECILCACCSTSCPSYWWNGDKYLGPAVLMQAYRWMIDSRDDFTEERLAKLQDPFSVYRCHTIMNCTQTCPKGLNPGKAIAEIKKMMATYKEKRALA
T1 sequence (Q9CZB0 30-169): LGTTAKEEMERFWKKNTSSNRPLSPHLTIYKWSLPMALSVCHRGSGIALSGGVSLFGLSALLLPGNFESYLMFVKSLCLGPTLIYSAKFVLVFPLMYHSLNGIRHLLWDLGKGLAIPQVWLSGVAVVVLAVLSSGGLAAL
T1 sequence (Q9CXV1 57-159): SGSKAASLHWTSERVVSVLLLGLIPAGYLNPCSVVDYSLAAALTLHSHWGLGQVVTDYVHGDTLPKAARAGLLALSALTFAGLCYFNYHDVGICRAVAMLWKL

For `COc1nc(-c2ncccc2C)cc(-c2ccc(N)cc2)c1C#N` [FC9402, 4-(4-aminophenyl)-2-methoxy-6-(3-methylpyridin-2-yl)pyridine-3-carbonitrile], the “inhibition of respiratory complex II” value [1] was “did not inhibit”, the “survival after 12 weeks” value ([2]; TAC mice) was 100% and the “cardiac enlargement (gross morphology, heart weight to tibia length)” value ([2]; TAC mice, 12 weeks) was “prevented the TAC-induced cardiac enlargement”. For the same compound, the “left ventricle function (ejection fraction, fractional shortening)” value [2, 4] was “preserved left ventricle function”, the “left ventricle size (diameter, volume, mass)” value [2, 4] was “maintained left ventricle size” and the “mice that developed heart failure” value ([2]; lung weight/tibia length above 95% confidence interval of sham) was 20%. The “angiotensin II-induced hypertrophy (cell surface area)” value [3] was “prevents angiotensin II-induced hypertrophy”.

Source: patent publication US20220096450A1, “Compounds and Methods for Treating or Preventing Heart Failure” (DREXEL UNIVERSITY, priority 2019, published 2022)
